Laboratory results taken from PubChem BioAssay AID1963831 (Molecular Pharmacology Branch, DTP, NCI, 2024).
pIC50: −log10 of the molar value.

Tested on: 889142-216-R-J1-PDC complex spheroid viability
Test: Anticancer human tumor 889142-216-R-J1-PDC patient-derived bladder carcinoma cell line growth inhibition [POLQ]
Conditions: for pIC50: curve of first compound; for viability, T/C: stronger effect = lower value; active = viability on the fitted dose curve at most 10% of control; inactive = the rest
Procedure, shortened: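 Complex spheroid viability model combining PDC tumour cells with endothelial (HUVEC) and MSC stromal cells. Novobiocin, ART-558 or RP6685 were tested singly and in combination with standard and investigational anticancer drugs. Each was titrated in half-log steps from near clinical Cmax, or from 10 microM where Cmax was unknown.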

[1] = second compound 0.0316 µM, first compound 0.0316 µM
[2] = second compound 0.0316 µM, first compound 0.1 µM
[3] = second compound 0.0316 µM, first compound 0.316 µM
[4] = second compound 0.0316 µM, first compound 1 µM
[5] = second compound 0.0316 µM, first compound 3.16 µM
[6] = second compound 0.0316 µM, first compound 10 µM
[7] = second compound 0.1 µM, first compound 0.0316 µM
[8] = second compound 0.1 µM, first compound 0.1 µM
[9] = second compound 0.1 µM, first compound 0.316 µM
[10] = second compound 0.1 µM, first compound 1 µM
[11] = second compound 0.1 µM, first compound 3.16 µM
[12] = second compound 0.1 µM, first compound 10 µM
[13] = second compound 0.316 µM, first compound 0.0316 µM
[14] = second compound 0.316 µM, first compound 0.1 µM
[15] = second compound 0.316 µM, first compound 0.316 µM
[16] = second compound 0.316 µM, first compound 1 µM
[17] = second compound 0.316 µM, first compound 3.16 µM
[18] = second compound 0.316 µM, first compound 10 µM
[19] = second compound 1 µM, first compound 0.0316 µM
[20] = second compound 1 µM, first compound 0.1 µM
[21] = second compound 1 µM, first compound 0.316 µM
[22] = second compound 1 µM, first compound 1 µM
[23] = second compound 1 µM, first compound 3.16 µM
[24] = second compound 1 µM, first compound 10 µM
[25] = second compound 3.16 µM, first compound 0.0316 µM
[26] = second compound 3.16 µM, first compound 0.1 µM
[27] = second compound 3.16 µM, first compound 0.316 µM
[28] = second compound 3.16 µM, first compound 1 µM
[29] = second compound 3.16 µM, first compound 3.16 µM
[30] = second compound 3.16 µM, first compound 10 µM
[31] = second compound 10 µM, first compound 0.0316 µM
[32] = second compound 10 µM, first compound 0.1 µM
[33] = second compound 10 µM, first compound 0.316 µM
[34] = second compound 10 µM, first compound 1 µM
[35] = second compound 10 µM, first compound 3.16 µM
[36] = second compound 10 µM, first compound 10 µM
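Note: spheroids exposed to compounds for seven days.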
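Throughout, for viability, T/C: 100% = DMSO vehicle control viability.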

COc1cc(C2c3cc4c(cc3C(OC3OC5COC(C)OC5C(O)C3O)C3COC(=O)C23)OCO4)cc(OC)c1O (stereo not drawn) + Cc1cccc(N(C)C(=O)C2C(O)CCN2c2nc(C)cc(C(F)(F)F)c2C#N)c1
inactive: viability, T/C [1] 83.9% | viability, T/C [2] 74.5% | viability, T/C [3] 65.3% | viability, T/C [4] 53.5% | viability, T/C [5] 65.1% | viability, T/C [6] 66% | viability, T/C [7] 82.6% | viability, T/C [8] 85.2% | viability, T/C [9] 70.9% | viability, T/C [10] 56.4% | viability, T/C [11] 68.5% | viability, T/C [12] 57.6% | viability, T/C [13] 93.1% | viability, T/C [14] 86.9% | viability, T/C [15] 59.4% | viability, T/C [16] 64% | viability, T/C [17] 70.1% | viability, T/C [18] 52.6% | viability, T/C [19] 86.2% | viability, T/C [20] 83.6% | viability, T/C [21] 62% | viability, T/C [22] 45.9% | viability, T/C [23] 70.6% | viability, T/C [24] 58.8% | viability, T/C [25] 83% | viability, T/C [26] 81.2% | viability, T/C [27] 64.2% | viability, T/C [28] 62.1% | viability, T/C [29] 62.4% | viability, T/C [30] 52.4% | viability, T/C [31] 77.4% | viability, T/C [32] 74.1% | viability, T/C [33] 61% | viability, T/C [34] 61% | viability, T/C [35] 59.8% | viability, T/C [36] 40.4%
< 5.00: pIC50 (second compound 0.0316 µM) | pIC50 (second compound 0.1 µM) | pIC50 (second compound 0.316 µM) | pIC50 (second compound 1 µM) | pIC50 (second compound 3.16 µM)
5.33: pIC50 (second compound 10 µM)

CCc1cc2c(N3CCc4c(cc(Cn5ccnc5)cc4-c4cn(C)nc4C(F)(F)F)C3=O)ccnc2c(OC)n1 + Nc1ccc(C#CCN(C(=O)Cc2ncc(C(F)(F)F)cc2C(F)(F)F)c2ccc(F)cc2)nn1
inactive: viability, T/C [1] 98% | viability, T/C [2] 105% | viability, T/C [3] 116% | viability, T/C [4] 137% | viability, T/C [5] 103% | viability, T/C [6] 80.2% | viability, T/C [7] 115% | viability, T/C [8] 117% | viability, T/C [9] 104% | viability, T/C [10] 125% | viability, T/C [11] 99.2% | viability, T/C [12] 117% | viability, T/C [13] 98.8% | viability, T/C [14] 107% | viability, T/C [15] 116% | viability, T/C [16] 124% | viability, T/C [17] 127% | viability, T/C [18] 82.1% | viability, T/C [19] 103% | viability, T/C [20] 93.7% | viability, T/C [21] 125% | viability, T/C [22] 123% | viability, T/C [23] 99% | viability, T/C [24] 105% | viability, T/C [25] 105% | viability, T/C [26] 104% | viability, T/C [27] 120% | viability, T/C [28] 124% | viability, T/C [29] 111% | viability, T/C [30] 105% | viability, T/C [31] 118% | viability, T/C [32] 101% | viability, T/C [33] 129% | viability, T/C [34] 135% | viability, T/C [35] 120% | viability, T/C [36] 92.8%
< 5.00: pIC50 (second compound 0.0316 µM) | pIC50 (second compound 0.1 µM) | pIC50 (second compound 0.316 µM) | pIC50 (second compound 1 µM) | pIC50 (second compound 3.16 µM) | pIC50 (second compound 10 µM)

O=C(Nc1ccc(O)c(NS(=O)(=O)c2ccc(F)cc2)c1)c1ccc(-c2ccccc2)cc1 + Nc1ccc(C#CCN(C(=O)Cc2ncc(C(F)(F)F)cc2C(F)(F)F)c2ccc(F)cc2)nn1
< 5.00: pIC50 (second compound 0.0316 µM) | pIC50 (second compound 0.1 µM) | pIC50 (second compound 0.316 µM) | pIC50 (second compound 1 µM) | pIC50 (second compound 3.16 µM) | pIC50 (second compound 10 µM)
inactive: viability, T/C [1] 118% | viability, T/C [2] 101% | viability, T/C [3] 83.9% | viability, T/C [4] 110% | viability, T/C [5] 127% | viability, T/C [6] 72% | viability, T/C [7] 104% | viability, T/C [8] 90.7% | viability, T/C [9] 94.1% | viability, T/C [10] 126% | viability, T/C [11] 129% | viability, T/C [12] 87.3% | viability, T/C [13] 96.2% | viability, T/C [14] 82.1% | viability, T/C [15] 110% | viability, T/C [16] 105% | viability, T/C [17] 134% | viability, T/C [18] 73% | viability, T/C [19] 117% | viability, T/C [20] 84.7% | viability, T/C [21] 97.7% | viability, T/C [22] 148% | viability, T/C [23] 119% | viability, T/C [24] 78.4% | viability, T/C [25] 105% | viability, T/C [26] 83.4% | viability, T/C [27] 135% | viability, T/C [28] 139% | viability, T/C [29] 127% | viability, T/C [30] 64.1% | viability, T/C [31] 110% | viability, T/C [32] 88% | viability, T/C [33] 118% | viability, T/C [34] 113% | viability, T/C [35] 101% | viability, T/C [36] 81%

O=c1[nH]cc(F)c(=O)[nH]1 + Nc1ccc(C#CCN(C(=O)Cc2ncc(C(F)(F)F)cc2C(F)(F)F)c2ccc(F)cc2)nn1
< 5.00: pIC50 (second compound 0.0316 µM) | pIC50 (second compound 0.1 µM) | pIC50 (second compound 0.316 µM) | pIC50 (second compound 1 µM) | pIC50 (second compound 3.16 µM) | pIC50 (second compound 10 µM)
inactive: viability, T/C [1] 91.6% | viability, T/C [2] 86.2% | viability, T/C [3] 90% | viability, T/C [4] 80% | viability, T/C [5] 81.1% | viability, T/C [6] 60.7% | viability, T/C [7] 91.1% | viability, T/C [8] 78.8% | viability, T/C [9] 58.8% | viability, T/C [10] 75.1% | viability, T/C [11] 67.1% | viability, T/C [12] 69.1% | viability, T/C [13] 108% | viability, T/C [14] 73.9% | viability, T/C [15] 68% | viability, T/C [16] 82.7% | viability, T/C [17] 68.3% | viability, T/C [18] 61.7% | viability, T/C [19] 83.4% | viability, T/C [20] 101% | viability, T/C [21] 79.8% | viability, T/C [22] 66.6% | viability, T/C [23] 61.9% | viability, T/C [24] 60.1% | viability, T/C [25] 82.7% | viability, T/C [26] 89.2% | viability, T/C [27] 83.3% | viability, T/C [28] 67.4% | viability, T/C [29] 72.4% | viability, T/C [30] 73.8% | viability, T/C [31] 109% | viability, T/C [32] 103% | viability, T/C [33] 83.2% | viability, T/C [34] 78.4% | viability, T/C [35] 68.6% | viability, T/C [36] 67.2%
